Test results taken from publication PMC11089204 (Frontiers in Pharmacology, 2024).

Columns and labels:
[1] = test system: norepinephrine transporters (NET); set-up: method as in Rickli et al., 2016; details: ref Rickli et al., 2016; cited from earlier work
[2] = biological target: T1, recombinant CYP2C9 (Homo sapiens, UniProt P11712); assay: Incubation with recombinant CYP2C9 enzymes; format: in vitro ADME; details: 1,000 nM psilocin, rec. CYP2C9
T1 construct: purchased Corning Life Sciences B.V
T1 sequence (P11712 whole entry): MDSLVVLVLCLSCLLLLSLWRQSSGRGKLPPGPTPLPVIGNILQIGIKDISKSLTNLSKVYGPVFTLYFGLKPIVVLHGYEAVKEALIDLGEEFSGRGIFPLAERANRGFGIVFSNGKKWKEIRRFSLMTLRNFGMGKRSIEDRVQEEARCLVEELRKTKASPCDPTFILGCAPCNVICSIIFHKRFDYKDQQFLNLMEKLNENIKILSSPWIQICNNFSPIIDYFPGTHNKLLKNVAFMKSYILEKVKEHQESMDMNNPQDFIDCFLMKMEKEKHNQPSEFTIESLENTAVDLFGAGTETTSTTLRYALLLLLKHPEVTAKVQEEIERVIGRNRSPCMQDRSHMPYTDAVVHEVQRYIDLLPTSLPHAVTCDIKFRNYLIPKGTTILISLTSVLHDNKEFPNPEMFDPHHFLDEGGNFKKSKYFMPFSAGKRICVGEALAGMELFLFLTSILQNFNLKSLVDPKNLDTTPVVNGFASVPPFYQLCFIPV
Experimental: (§1) Corning UltraPool human liver microsomes (HLM) 150 (20 mg/mL), human intestinal microsomes (HIM) pool (10 mg/mL) as well as recombinant human CYP enzymes (with P450 oxidoreductase, OR) including CYP1A2+OR (0.5 nmol), CYP2B6+OR (0.5 nmol), CYP2C8+OR (1.0 nmol), CYP2C9*1+OR (1 nmol), CYP2C19+OR (0.5 nmol), CYP2D6*1+OR (0.5 nmol), CYP2E1+OR + cytochrome b5 (1 nmol), CYP3A4+OR + cytochrome b5 (0.5 nmol), MAO-A (5 mg/mL), MAO-B (5 mg/mL), and UGT1A10 (5 mg/mL) were purchased from Corning Life Sciences B.V (Amsterdam, Netherlands). All microsomes and recombinant enzyme solutions were aliquoted and stored at −80 °C until further use.
(§2) The total volume of the reaction mixture was 500 μL. […] Samples were either directly analyzed by liquid chromatography tandem mass spectrometry (LC-MS/MS) or briefly stored at −20°C until analysis.

[3] = test system: dopamine (DAT) transporter; set-up: method as in Rickli et al., 2016; details: ref Rickli et al., 2016; cited from earlier work
[4] = test system: human liver microsomes (HLM); assay: Glucuronidation with human liver microsomes; format: in vitro ADME; details: 1,000 nM psilocin with HLM and UGT co-factors
Experimental: as §1, with “use. Co-factors including NADPH regenerating system solution A (25 mM NADP+, 66 mM glucose-6-phosphate, and 66 mM MgCl2 in water), NADPH regenerating system solution B (40 U/mL glucose-6-phosphate dehydrogenase in 5 mM sodium citrate), UGT reaction mix solution A (25 mM uridine 5′-diphospho-glucuronic acid in water), and UGT reaction mix solution B (250 mM Tris-HCl, 40 mM MgCl2, and 0.125 mg/mL alamethicin in water) were also obtained from Corning Life Sciences B.V.” for “use.”
The assay described in section 2.5.1 was adjusted to suit the glucuronidation system. […] HLM were diluted as described in section 2.5.1, while HIM or UGT1A10 enzymes were diluted 1:40 (end concentration […] and 0.125 mg/mL, respectively) in the reaction mix. […]

[5] = biological target: T2, recombinant CYP2C8 (Homo sapiens, UniProt P10632); assay: Incubation with recombinant CYP2C8 enzymes; format: in vitro ADME; details: 1,000 nM psilocin, rec. CYP2C8
T2 construct: purchased Corning Life Sciences B.V
T2 sequence (P10632 whole entry): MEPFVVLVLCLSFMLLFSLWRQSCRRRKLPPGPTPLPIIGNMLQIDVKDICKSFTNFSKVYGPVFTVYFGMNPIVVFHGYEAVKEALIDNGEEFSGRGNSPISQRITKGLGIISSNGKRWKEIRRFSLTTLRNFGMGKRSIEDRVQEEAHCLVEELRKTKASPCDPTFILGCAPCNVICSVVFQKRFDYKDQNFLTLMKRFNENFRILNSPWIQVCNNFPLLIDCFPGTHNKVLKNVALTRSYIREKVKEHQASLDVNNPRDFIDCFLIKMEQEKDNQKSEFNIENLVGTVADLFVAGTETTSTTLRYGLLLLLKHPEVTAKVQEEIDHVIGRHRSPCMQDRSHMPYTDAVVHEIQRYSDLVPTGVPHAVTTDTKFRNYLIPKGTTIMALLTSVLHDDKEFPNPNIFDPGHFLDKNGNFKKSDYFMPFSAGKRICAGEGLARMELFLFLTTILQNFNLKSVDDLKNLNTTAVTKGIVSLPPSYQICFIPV
Experimental: as §1, §2

[6] = biological target: T3, recombinant human UGT1A10 (Homo sapiens, UniProt Q9HAW8); assay: Glucuronidation with recombinant UGT1A10; format: in vitro ADME; details: for psilocin concentration (mean ± SD): 1,000 nM psilocin
T3 construct: purchased Corning Life Sciences B.V
T3 sequence (Q9HAW8 26-530): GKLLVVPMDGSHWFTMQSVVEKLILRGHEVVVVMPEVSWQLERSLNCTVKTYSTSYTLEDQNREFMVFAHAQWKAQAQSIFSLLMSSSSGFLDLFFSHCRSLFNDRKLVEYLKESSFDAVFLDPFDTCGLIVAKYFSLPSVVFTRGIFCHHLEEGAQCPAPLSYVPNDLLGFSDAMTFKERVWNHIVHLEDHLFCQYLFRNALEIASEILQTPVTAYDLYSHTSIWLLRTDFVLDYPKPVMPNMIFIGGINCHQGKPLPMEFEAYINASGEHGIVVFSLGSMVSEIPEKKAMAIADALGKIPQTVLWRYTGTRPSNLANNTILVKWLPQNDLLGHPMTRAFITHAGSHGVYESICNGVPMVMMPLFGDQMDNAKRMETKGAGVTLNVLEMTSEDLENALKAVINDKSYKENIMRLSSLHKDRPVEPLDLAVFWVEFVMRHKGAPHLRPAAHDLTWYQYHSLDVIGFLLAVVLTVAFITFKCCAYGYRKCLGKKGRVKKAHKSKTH
Experimental: as §1
The assay described in section 2.5.1 was adjusted to suit the glucuronidation system.

[7] = test system: human intestinal microsomes (HIM); assay: Glucuronidation with human intestinal microsomes; format: in vitro ADME; details: for psilocin concentration: absence of HIM
Experimental: as §1, with “use. Co-factors including NADPH regenerating system solution A (25 mM NADP+, 66 mM glucose-6-phosphate, and 66 mM MgCl2 in water), NADPH regenerating system solution B (40 U/mL glucose-6-phosphate dehydrogenase in 5 mM sodium citrate), UGT reaction mix solution A (25 mM uridine 5′-diphospho-glucuronic acid in water), and UGT reaction mix solution B (250 mM Tris-HCl, 40 mM MgCl2, and 0.125 mg/mL alamethicin in water) were also obtained from Corning Life Sciences B.V.” for “use.”
The assay described in section 2.5.1 was adjusted to suit the glucuronidation system. […] HLM were diluted as described in section 2.5.1, while HIM or UGT1A10 enzymes were diluted 1:40 (end concentration […] and 0.125 mg/mL, respectively) in the reaction mix. Sampling time points were adjusted to 0, 15, 30, 60, 90, 120, 180, and 240 min.

[8] = biological target: T4, recombinant CYP1A2 (Homo sapiens, UniProt P05177); assay: Incubation with recombinant CYP1A2 enzymes; format: in vitro ADME; details: 1,000 nM psilocin, rec. CYP1A2
T4 construct: purchased Corning Life Sciences B.V
T4 sequence (P05177 2-516 limits assumed): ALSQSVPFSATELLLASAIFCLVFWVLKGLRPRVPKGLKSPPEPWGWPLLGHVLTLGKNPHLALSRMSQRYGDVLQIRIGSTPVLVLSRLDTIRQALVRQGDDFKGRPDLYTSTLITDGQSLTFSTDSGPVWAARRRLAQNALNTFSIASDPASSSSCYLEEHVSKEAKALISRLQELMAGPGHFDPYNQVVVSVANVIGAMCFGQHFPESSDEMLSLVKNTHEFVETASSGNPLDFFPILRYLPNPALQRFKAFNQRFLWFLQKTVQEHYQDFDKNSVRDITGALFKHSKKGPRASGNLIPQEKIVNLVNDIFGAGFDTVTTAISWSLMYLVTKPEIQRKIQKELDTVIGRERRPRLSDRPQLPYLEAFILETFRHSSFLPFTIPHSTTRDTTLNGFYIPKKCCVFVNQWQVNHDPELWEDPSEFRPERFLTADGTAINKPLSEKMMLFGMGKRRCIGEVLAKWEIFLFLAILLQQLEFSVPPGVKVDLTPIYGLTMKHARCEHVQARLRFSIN
Experimental: as §1, §2

[9] = biological target: T5, recombinant CYP2E1 (Homo sapiens, UniProt P05181); assay: Incubation with recombinant CYP2E1 enzymes; format: in vitro ADME; details: 1,000 nM psilocin, rec. CYP2E1
T5 construct: purchased Corning Life Sciences B.V
T5 sequence (P05181 whole entry): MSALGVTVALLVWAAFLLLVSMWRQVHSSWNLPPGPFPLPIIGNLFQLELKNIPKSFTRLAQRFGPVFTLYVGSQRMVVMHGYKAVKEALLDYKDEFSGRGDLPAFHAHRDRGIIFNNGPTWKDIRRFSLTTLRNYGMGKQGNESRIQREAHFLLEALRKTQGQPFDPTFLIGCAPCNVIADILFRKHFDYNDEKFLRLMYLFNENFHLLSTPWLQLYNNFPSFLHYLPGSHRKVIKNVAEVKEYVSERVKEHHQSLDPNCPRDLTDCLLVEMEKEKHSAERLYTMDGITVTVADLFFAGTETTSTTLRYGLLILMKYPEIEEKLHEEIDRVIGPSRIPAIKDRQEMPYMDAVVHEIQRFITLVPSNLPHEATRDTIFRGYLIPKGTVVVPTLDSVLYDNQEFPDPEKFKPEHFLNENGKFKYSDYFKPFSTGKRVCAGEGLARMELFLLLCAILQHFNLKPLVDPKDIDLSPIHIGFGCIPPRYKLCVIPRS
Experimental: as §1, §2

## CN(C)CCc1c[nH]c2cccc(O)c12 [psilocin, 4-hydroxy-N,N-dimethyltryptamine]
[1]
  inhibition of NET: not
[2]
  metabolism of psilocin: did not metabolize
[3]
  inhibition of DAT: not
[4]
  glucuronidation of psilocin: No glucuronidation was observed
[5]
  metabolism of psilocin: did not metabolize
[6]; rec. UGT1A10, t = 0 min
  psilocin concentration (mean ± SD): 1,029 ± 60 nM
[6]; rec. UGT1A10, t = 240 min
  psilocin concentration (mean ± SD): 979 ± 95 nM
[6]; absence of UGT1A10, t = 0
  psilocin concentration: 980 ± 77 nM
[6]; absence of UGT1A10, t = 240
  psilocin concentration: 893 ± 91 nM
[7]; 1,000 nM psilocin, HIM, 240 min
  decrease of psilocin concentration through glucuronidation: 37%
[7]; HIM, t = 0
  psilocin concentration (mean ± SD): 1,085 ± 157 nM
[7]; HIM, t = 240
  psilocin concentration (mean ± SD): 684 ± 53 nM
[7]; t = 0
  psilocin concentration: 980 ± 77 nM
[7]; t = 240
  psilocin concentration: 893 ± 91 nM
[8]
  metabolism of psilocin: did not metabolize
[9]
  metabolism of psilocin: did not metabolize
